Literature values in patent publication US7829066B2, “Assay for anti-metastatic agents” (Memorial Sloan-Kettering Cancer Center, priority 2006, dated 2010).

Test system: metastatic tumors
Conditions: stated as known

## Avastin: an anti-VEGF inhibitor that is known to inhibit metastatic tumors
  inhibition of metastatic tumors: known to inhibit metastatic tumors
